One block for each compound: values may come before it.
Tested on: 379773-124-R-J2-PDC complex spheroids, viability % test/control
Experiment: Anticancer human tumor 379773-124-R-J2-PDC patient-derived endometrial carcinoma cell line growth inhibition [CLK]
Details: for IC50: curve of first compound; for viability, T/C: stronger effect = lower value
How it was run: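 Patient-derived tumor cells grown as complex spheroids with HUVEC endothelial cells and mesenchymal stem cells, treated with drug combinations. Concentrations descend in half-log steps from near clinical Cmax, or from 10 microM if Cmax unknown.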

[1] = second compound 0.0316 µM, first compound 0.0316 µM
[2] = second compound 0.0316 µM, first compound 0.1 µM
[3] = second compound 0.0316 µM, first compound 0.316 µM
[4] = second compound 0.0316 µM, first compound 1 µM
[5] = second compound 0.0316 µM, first compound 3.16 µM
[6] = second compound 0.0316 µM, first compound 10 µM
[7] = second compound 0.1 µM, first compound 0.0316 µM
[8] = second compound 0.1 µM, first compound 0.1 µM
[9] = second compound 0.1 µM, first compound 0.316 µM
[10] = second compound 0.1 µM, first compound 1 µM
[11] = second compound 0.1 µM, first compound 3.16 µM
[12] = second compound 0.1 µM, first compound 10 µM
[13] = second compound 0.316 µM, first compound 0.0316 µM
[14] = second compound 0.316 µM, first compound 0.1 µM
[15] = second compound 0.316 µM, first compound 0.316 µM
[16] = second compound 0.316 µM, first compound 1 µM
[17] = second compound 0.316 µM, first compound 3.16 µM
[18] = second compound 0.316 µM, first compound 10 µM
[19] = second compound 1 µM, first compound 0.0316 µM
[20] = second compound 1 µM, first compound 0.1 µM
[21] = second compound 1 µM, first compound 0.316 µM
[22] = second compound 1 µM, first compound 1 µM
[23] = second compound 1 µM, first compound 3.16 µM
[24] = second compound 1 µM, first compound 10 µM
[25] = second compound 3.16 µM, first compound 0.0316 µM
[26] = second compound 3.16 µM, first compound 0.1 µM
[27] = second compound 3.16 µM, first compound 0.316 µM
[28] = second compound 3.16 µM, first compound 1 µM
[29] = second compound 3.16 µM, first compound 3.16 µM
[30] = second compound 3.16 µM, first compound 10 µM
[31] = second compound 10 µM, first compound 0.0316 µM
[32] = second compound 10 µM, first compound 0.1 µM
[33] = second compound 10 µM, first compound 0.316 µM
[34] = second compound 10 µM, first compound 1 µM
[35] = second compound 10 µM, first compound 3.16 µM
[36] = second compound 10 µM, first compound 10 µM
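Also: compound exposure lasted seven days before the viability readout.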
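For viability, T/C in this document: 100% = DMSO vehicle control wells.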

- IC50 (second compound 0.0316 µM): 4460 nM
- IC50 (second compound 0.1 µM): < 31.6 nM
- IC50 (second compound 0.316 µM): < 31.6 nM
- IC50 (second compound 1 µM): < 31.6 nM
- IC50 (second compound 3.16 µM): < 31.6 nM
- IC50 (second compound 10 µM): < 31.6 nM
SMILES: CC1(C)CCC(CN2CCN(c3ccc(C(=O)NS(=O)(=O)c4ccc(NCC5CCOCC5)c([N+](=O)[O-])c4)c(Oc4cnc5[nH]ccc5c4)c3)CC2)=C(c2ccc(Cl)cc2)C1 + CNC(=O)c1ccc(Nc2nc(OC3CCCC3)c3c(-c4ccc5nc(C)oc5c4)c[nH]c3n2)c(OC)c1
- viability, T/C [1]: 68.1%
- viability, T/C [2]: 79.2%
- viability, T/C [3]: 76.3%
- viability, T/C [4]: 83.6%
- viability, T/C [5]: 70.9%
- viability, T/C [6]: 0.9%
- viability, T/C [7]: 42.1%
- viability, T/C [8]: 38.5%
- viability, T/C [9]: 33.8%
- viability, T/C [10]: 38.1%
- viability, T/C [11]: 32.5%
- viability, T/C [12]: 1.18%
- viability, T/C [13]: 35.6%
- viability, T/C [14]: 33.2%
- viability, T/C [15]: 33.7%
- viability, T/C [16]: 44.9%
- viability, T/C [17]: 32%
- viability, T/C [18]: 1.34%
- viability, T/C [19]: 32%
- viability, T/C [20]: 31.9%
- viability, T/C [21]: 30.8%
- viability, T/C [22]: 38.6%
- viability, T/C [23]: 28.6%
- viability, T/C [24]: 2.29%
- viability, T/C [25]: 31.2%
- viability, T/C [26]: 33.2%
- viability, T/C [27]: 42%
- viability, T/C [28]: 31.2%
- viability, T/C [29]: 32.7%
- viability, T/C [30]: 0.72%
- viability, T/C [31]: 30.8%
- viability, T/C [32]: 25.5%
- viability, T/C [33]: 30.7%
- viability, T/C [34]: 32.7%
- viability, T/C [35]: 29.3%
- viability, T/C [36]: 1.59%

- IC50 (second compound 0.0316 µM): 5290 nM
- IC50 (second compound 0.1 µM): < 31.6 nM
- IC50 (second compound 0.316 µM): < 31.6 nM
- IC50 (second compound 1 µM): < 31.6 nM
- IC50 (second compound 3.16 µM): < 31.6 nM
- IC50 (second compound 10 µM): < 31.6 nM
SMILES: COC1C=CCC(C)C(C)S(=O)(=O)NC(=O)c2ccc3c(c2)N(CC2CCC21)CC1(CCCc2cc(Cl)ccc21)CO3 (centres undefined) + CNC(=O)c1ccc(Nc2nc(OC3CCCC3)c3c(-c4ccc5nc(C)oc5c4)c[nH]c3n2)c(OC)c1
- viability, T/C [1]: 85.2%
- viability, T/C [2]: 82.8%
- viability, T/C [3]: 90.5%
- viability, T/C [4]: 90%
- viability, T/C [5]: 90%
- viability, T/C [6]: 3.4%
- viability, T/C [7]: 41.3%
- viability, T/C [8]: 35.1%
- viability, T/C [9]: 33.8%
- viability, T/C [10]: 29.2%
- viability, T/C [11]: 37%
- viability, T/C [12]: 3.05%
- viability, T/C [13]: 37.3%
- viability, T/C [14]: 39.6%
- viability, T/C [15]: 30.1%
- viability, T/C [16]: 20.1%
- viability, T/C [17]: 20.5%
- viability, T/C [18]: 2.22%
- viability, T/C [19]: 36.4%
- viability, T/C [20]: 36.4%
- viability, T/C [21]: 25.6%
- viability, T/C [22]: 20.1%
- viability, T/C [23]: 18.1%
- viability, T/C [24]: 2.26%
- viability, T/C [25]: 31.5%
- viability, T/C [26]: 33.8%
- viability, T/C [27]: 23.3%
- viability, T/C [28]: 18.4%
- viability, T/C [29]: 13%
- viability, T/C [30]: 1.56%
- viability, T/C [31]: 35.1%
- viability, T/C [32]: 42.5%
- viability, T/C [33]: 30.4%
- viability, T/C [34]: 21.6%
- viability, T/C [35]: 11.7%
- viability, T/C [36]: 1.66%
